Patent US20230286999A1, “ORGANIC COMPOUND, LIGHT-RECEIVING DEVICE, LIGHT-EMITTING AND LIGHT-RECEIVING APPARATUS, AND ELECTRONIC DEVICE” (Semiconductor Energy Laboratory Co., Ltd., priority 2022, published 2023)

Legend:
[1] = Solubility evaluation using a liquid chromatography mass spectrometer; assay type: physicochemical; settings: for Ratio of chromatogram peak areas (Peak area of material/Peak area of solvent × 100), considered as the solubility: 0.5 mg material in 0.25 mL chloroform + 2.5 mL acetonitrile, filtrate after 18 hours, DPAPhA: 1 mg in 1 mL toluene, 5-fold dilution with acetonitrile, 100% = completely dissolved; for solubility compared with FT2TDMN (in words): chloroform/acetonitrile sample
Description: In Example 3, the solubilities of materials that can be used for a photoelectric conversion device of one embodiment of the present invention are described. The solubilities of the materials were measured using a liquid chromatography mass spectrometer.
In Example 3, the solubilities of the organic compound (abbreviation: EtHex-FT2TDMN) represented by Structural Formula (100) in Embodiment 1 and the organic compound (abbreviation: EtHex-BisDCVTTt) represented by Structural Formula (200) in Embodiment 1 were evaluated. As a comparative example, FT2TDMN, which is a material having no branched alkyl, was evaluated. Furthermore, DPAPhA, which is a material with high solubility, was also evaluated as a reference sample.
The solubilities were measured using a liquid chromatography mass spectrometer. Specifically, chromatogram peak areas of the solvent and the material in the sample were obtained, the proportion of the peak area of the material to the peak area of the solvent was calculated, and the calculated value was considered as the solubility.
Note that the solubility of the case where the sample is completely dissolved is 100%. In Example 3, DPAPhA is a reference sample that is completely dissolved. In the case where a chromatogram peak is not detected and an MS spectrum is detected from a sample, the mass of the sample is regarded as being lower than the detection limit and the solubility is 0%.
The liquid chromatography mass spectrometer is constructed of ACQUITY H-Class (produced by Waters Corporation) and Xevo™ G2 Q-TOF MS (produced by Waters Corporation), and ACQUITY UPLC (registered trademark) BEH C8 Column ([…], 2.1×100 mm) (produced by Waters Corporation, hereinafter referred to as Column) was used as a column.
Samples of EtHex-FT2TDMN, EtHex-BisDCVTTt, and FT2TDMN used for solubility evaluation were formed. Specifically, in a reagent bottle made of glass were put 0.5 mg of the material and 0.25 mL of chloroform, and ultrasonic treatment was performed for 1 minute. To the obtained mixture, 2.5 mL of acetonitrile was added, and the resulting mixture was left still. After 18 hours, the resulting mixture was filtrated. With the use of the obtained filtrate as a sample, a solubility test for evaluating the solubility was performed using the liquid chromatography mass spectrometer.
Next, the DPAPhA sample used for solubility evaluation was formed. In a reagent bottle made of glass were put 1 mg of the material and 1 mL of toluene, and ultrasonic treatment was performed for 1 minute. Acetonitrile was added to the obtained solution to make a 5-fold dilution. The dilute solution was used as the sample and took the solubility test with the liquid chromatography mass spectrometer.
A measurement method for the solubility test for evaluating the solubility using the liquid chromatography mass spectrometer is described. As a mobile phase A and a mobile phase B, acetonitrile and a formic acid aqueous solution (0.1%) were used, respectively; the velocity of flow of a solvent was 0.5 mL/min; and the sample injection amount was 5 μL.
(§1) For 1 minute from the beginning of the measurement, the ratio of a mobile phase A to a mobile phase B was set to be 75:25. From 1 minute to 9 minutes, measurement was performed with a linear gradient to the ratio of 95:5. After a lapse of 10 minutes, measurement was performed for 5 minutes with the ratio of 95:5 held.
as §1, with “85:15.” for “75:25.”
For 1 minute from the beginning of the measurement, the ratio of a mobile phase A to a mobile phase B was set to be 40:60. From 1 minute to 9 minutes, measurement was performed with a linear gradient to the ratio of 95:5. […]

[2] = Thermogravimetry-differential thermal analysis (TG-DTA); assay type: physicochemical; settings: 10° C./min
Description: (§2) The thermogravimetry-differential thermal analysis (TG-DTA) of EtHex-FT2TDMN was performed. The measurement was conducted using a high vacuum differential type differential thermal balance (TG-DTA 2410SA, manufactured by Bruker AXS K.K.). The measurement was performed under two conditions. The first measurement was performed at atmospheric pressure at a temperature rising rate of 10° C./min under a nitrogen stream (flow rate: 200 mL/min). The second measurement was performed at 10 Pa at a temperature rising rate of 10° C./min under a nitrogen stream (flow rate: 2 mL/min).
as §2, with “(TG-DTA) of EtHex-BisDCVTTt was performed.” for “(TG-DTA) of EtHex-FT2TDMN was performed.”, “was performed under atmospheric pressure” for “was performed at atmospheric pressure”

[3] = 10 Pa, nitrogen stream 2 mL/min
[4] = atmospheric pressure, nitrogen stream 200 mL/min

Ratio of chromatogram peak areas (Peak area of material/Peak area of solvent × 100), considered as the solubility [1] [%]	chromatogram peak detection in solubility measurement (in words) ([1]; only an MS spectrum was detected, regarded as below detection limit, solubility 0%)	Structure (SMILES)	solubility compared with FT2TDMN (in words) [1]	temperature (decomposition temperature) at which the weight obtained by thermogravimetry was reduced by 5% [2, 3] [°C]	temperature (decomposition temperature) at which the weight obtained by thermogravimetry was reduced by 5% [2, 4] [°C]
100		c1ccc(-c2c3ccccc3c(N(c3ccccc3)c3ccc(N(c4ccccc4)c4ccccc4)cc3)c3ccccc23)cc1 [DPAPhA, reference compound]			
18		CCCCC(CC)Cc1cc(-c2cc3sc(-c4cc(CC(CC)CCCC)c(C=C(C#N)C#N)s4)cc3s2)sc1C=C(C#N)C#N (centres unmarked) [EtHex-FT2TDMN, 2,2′-[5,5′-(thieno[3,2-b]thiophene-2,5-diyl)bis(3-(2-ethylhexyl)thiophene-5,2-diyl)]bis(methan-1-yl-1-ylidene)dimalononitrile]	favorable solubilities	244	325
0	no chromatogram peak was detected	N#CC(C#N)=Cc1ccc(-c2cc3sc(-c4ccc(C=C(C#N)C#N)s4)cc3s2)s1 [FT2TDMN, reference compound]			

Structure (SMILES)	Ratio of chromatogram peak areas (Peak area of material/Peak area of solvent × 100), considered as the solubility [1] [%]	chromatogram peak detection in solubility measurement (in words) ([1]; only an MS spectrum was detected, regarded as below detection limit, solubility 0%)	solubility compared with FT2TDMN (in words) [1]	temperature (decomposition temperature) at which the weight obtained by thermogravimetry was reduced by 5% [2, 3] [°C]	temperature (decomposition temperature) at which the weight obtained by thermogravimetry was reduced by 5% [2, 4] [°C]
CCCCC(CC)Cc1cc(-c2cc3sc(-c4cc5sc(-c6cc(CC(CC)CCCC)c(C=C(C#N)C#N)s6)cc5s4)cc3s2)sc1C=C(C#N)C#N (centres unmarked) [EtHex-BisDCVTTt]	3.5		favorable solubilities	295	362
